{
  "source": "patent US7135305B2",
  "about": "“Methods for controlling the lysis of coagulated blood with apolipoprotein e4 phenotype” (priority 2000, dated 2006)",
  "key": {"[1]": {"tested_on": "t-PA stimulated clot lysis in fresh human blood", "experiment": "in vitro clot lysis measured by the amount of liquid liberated from the blood sample (Example 1)", "conditions": "FIG. 2; individual B's blood; t-PA alone 0.5 mg/l blood; N=3", "excerpt": "There are various methods for determining the function, action and or kinetics of t-PA. These include but are not limited to: measuring fibrin degradation fragments, clot lysis, clot weight, fluid evolution weight, clot times and others. Those experienced in the art will be familiar with these and other methods for assaying t-PA activity or clot degradation/formation etc. The data from this study consists of a measurement of clot dissolution or lysis by measuring the amount of liquid liberated from the blood sample. This is an index of clot lysis and the clot lysis is stimulated by t-PA.\nTypically, two mls of fresh human blood are drawn and added to pre-weighed vials containing known amounts of t-PA with or without Apo E4. The blood is mixed and allowed to equilibrate for 40 minutes. The vials are centrifuged at 1 g for 15 minutes and the supernatant decanted. Clot weight and solution weight is determined and used to measure clot degradation or dissolution. Increasing supernatant volumes indicate increased clot degradation or increasing clot dissolution."}, "t-PA induced clot lysis": {"tested_on": "t-PA induced clot lysis", "experiment": "in vitro clot assay system, t-PA induced clot lysis with supplemental Apo E isoproteins (Example 3)", "design": "species or system human", "conditions": "FIG. 4; t-PA 0 to 4 μg/ml, alone or with supplemental Apo E 9.8 μg/ml; blood of 18 volunteers", "method": "The ability of Apo E isoproteins to modulate t-PA induced clot lysis is assessed using an in vitro clot assay system. This system uses the decrease in clot formation in the presence of t-PA to approximate the amount of clot lysis. Blood samples are obtained from 18 volunteers and divided into three Apo E genotypes (6 patients in each group): E2 (E2/E2, E2/E3, E2/E4), E3 (E3/E3) and E4 (E3/E4, E4/E4). Clot lysis in the presence of varying concentrations of t-PA (0 to 4 μg/ml), is assessed in the presence or absence of supplemental Apo E2, E3 or E4 (9.8 μg/ml) for each patient genotype. The results are expressed as EC50s, which are the effective concentrations of t-PA required to achieve 50% lysis of the clot."}},
  "data": [
    {"substance": "t-PA: tissue plasminogen activator, clot lysis agent", "values": [
      {"measurement": "level of clot lysis", "setting": "[1]", "value": 2.5, "unit": "g"},
      {"measurement": "EC50, effective concentration of t-PA required to achieve 50% lysis of the clot", "setting": "t-PA induced clot lysis", "value": "0.72 ± 0.19", "unit": "mg/L"}
    ]}
  ]
}
